From patent US20230220047A1, “PEPTIDES FOR TREATMENT OF SEPSIS AND CANCER” (NORWEGIAN UNIVERSITY OF SCIENCE AND TECHNOLOGY (NTNU), priority 2020, published 2023) come the findings set out here.

For data set [1], the system named is JJN-3 multiple myeloma cells. It is filed as cell-based, human. To be noted: JJN-3, 10 μM. From the text:
Minor effects on the proliferation of the IH-1 and RPMI 8226 cell lines are seen. […] The number of viable cells was detected based on quantitation of ATP by luminescent signal in correlation to a standard curve prepared for each cell line. Results are based on 3-5 biological replicates for each condition, error bars show standard deviation of mean.
Multiple myeloma cells JJN-3 (DSMZ (Germany) no. ACC 541), ANBL-6 (Cellosaurus accession number CVCL_5425, obtained from Dr Diane Jelinek, Mayo Clinic, Rochester, Minn.), INA-6 (Cellosaurus accession number CVCL_5209, obtained from Dr M. Gramatzki, University of Erlangen-Nurnberg, Erlangen, Germany), RPMI-8226 (ATCC CCL-155), and IH-1 (Cellosaurus accession number CVCL_WZ44, established from the pleural effusion of a myeloma patient by Myeloma research group, IKOM, NTNU, Trondheim, Norway) were grown in RPMI-1640 (Sigma-Aldrich Norway, Oslo, Norway) supplemented with 100 nM penicillin/streptomycin and 10% FCS, and for ANBL-6, IH-1 and INA-6 cells 2 ng/ml recombinant IL-6 (Gibco, Thermo Fisher Scientific, Waltham, Mass., USA). Murine multiple myeloma Vk*MYC cells were obtained from M.D. Leif Bergsagel (Mayo Clinic, Richester, Minn., USA) and cultured in RPMI-1640 supplemented with 2% human serum (B^+, The blood bank, St Olav's Hospital, Trondheim, Norway), 100 nM penicillin/streptomycin, L-Glutamine (2 mM) and recombinant IL-6 (1 ng/ml). HEK293T (ATCC CRL-3216) were cultured in DMEM with 10% FCS. THP-1 TRAM knockout (KO) and TLR4 KO cell lines, and matching lentivirally transduced control cell lines, were differentiated in the same way as wild type (WT) THP-1. TRAM KO THP-1 cell line is described in Yurchenko et al. (supra).
To evaluate the potential impact of the P7 peptide on proliferation of tumour cells of lymphoid origin, we performed a CellTiter-Glo Luminescent Cell Viability Assay to address proliferation of several multiple myeloma (MM) cell lines. […]

For a further data set, the system named is THP-1 TRAM KO cells. Briefly: qPCR of LPS-mediated cytokine expression in THP-1 TRAM KO cells. It is filed as cell-based, human. To be noted: 10 μM, LPS 100 ng/ml 2 or 4 h. As to the method:
Control THP-1 CRISPR cells and TRAM KO cells were pre-treated with 10 μM peptides—control peptides with amino acid substitutions (C3-Pen) or TRAM-targeting peptide Pep7-Penetratin (P7-Pen)—for 30 min before stimulation with LPS (100 ng/ml) for 2 or 4 h. Cells were lysed with Qiazol, followed by RNA isolation and quantitative PCR analysis of cytokine mRNA expression.
In human cells (THP-1 cell line) TRAM expression was not required for TLR4-mediated IL-1β or TNF expression in response to LPS or E. coli particles (FIG. 21, lower panels). P7-Pen was as effective in reducing expression of pro-inflammatory cytokines in THP-1 TRAM KO cells as in control cells (FIG. 22).

The test system of data set [2] is primary human monocytes. Briefly: Confocal analysis of E. coli particle uptake by primary human monocytes. Conditions: 15 μM, level comparable with CytoD treated cells. It is filed as cell-based. As for the experimental part:
Cells were pre-incubated with Pen or P7-Pen peptides, followed by addition of Alexa Fluor 488-labeled bioparticles for the times indicated (15, 30 or 45 min). Fluorescent bacteria particles were counted by spot-detection in Bitplane Imaris imaging software and used to calculate the number of particles per cell. […] Pre-incubation with 3 μM cytochalasin D (CytoD, and inhibitor of actin polymerization) inhibited uptake of E. coli to a similar extent as P7-Pen.
THP-1 cells, THP-1^cherry cells or human PBMC were seeded in 24-well glass-bottom plates (MatTek Corporation), 125,000 cells/well. The THP-1 cells were differentiated into macrophages with 60 ng/ml PMA for 72 h and thereafter rested for 48 h, whereas the PBMC were used the day after isolation. The P7-penatratin peptide or control peptide was added to the cells 30 min before stimulation at 15 μM concentration. If used, 3 μM cytochalasin D (CytoD) was added simultaneously. […] A spot detection mode in the Bitplan Imaris software was used to define individual phagosomes and cells were counted manually. […] Fluorescence voxel intensity of TRAM^cherry at the phagosome is also presented. Statistical significance was calculated in GraphPad Prism by One-way ANOVA Kruskal-Wallis multiple comparison test. […]

In data set [3] the test system is primary human monocytes. Briefly: LDH cell viability in primary human monocytes. It is filed as cell-based. Conditions: compared to control peptides or P7-Pen.

Regarding “Ac-ITVAASVTLTGRQIKIWFQNRRMKWKK-NH2 [Peptide P7-A4-Pen]”, the cell proliferation result in data set [1] (48 h) is on record as “strongly inhibited cell proliferation”. Moreover, the cell death entry in data set [1] (48 h (LDH assay not shown)) is listed as “induced cell death”.
For “Ac-ITVYASVTLTGRQIKIWFQNRRMKWKK-NH2 [Peptide P7-Pen]”, in the data set with THP-1 TRAM KO cells, the “reducing expression of pro-inflammatory cytokines in THP-1 TRAM KO cells versus control cells” value is recorded as “as effective”. In the data set on primary human monocytes [2], the “uptake of E. coli particles” value is listed as “inhibited”.
Regarding “Ac-ITVYASVTLTGRRRRRRRRRRR-NH2 [Peptide P7-Arg11]”, the basal toxicity result in the data set with primary human monocytes [3] is reported as “higher basal toxicity”.
